Columns and labels:
[1] = test system: IPOHE (Ipomoea hederacea); experiment: Postemergence herbicidal evaluation; assay type: in vivo, (L.) Jacq.; conditions: postemergence
In short: (§1)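 Visual 0–9 injury scores versus control plants, covering stand, vigour, malformation, size, chlorosis and general appearance, taken four to five weeks post-spray and averaged over replicate tests. Plants were sprayed at roughly two weeks old and held on greenhouse benches.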

[2] = test system: ECHORC (Echinochloa oryzoides); experiment: Flooded paddy, preemergence weed control; assay type: in vivo, Echinochloa oryzoides (Ard.) Fritsch.; conditions: rated 3-4 weeks after treatment, 0-9 rating scale
In short: (§2)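 Seeds or propagating organs were sown in the top 0.5 cm of silt loam soil, flooded, and the water kept 1.5 to 3 cm above the soil surface throughout. Plants were grown in the greenhouse and rated visually on a 0-9 scale against a control.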

[3] = test system: SETVI (Setaria viridis); experiment: Postemergence herbicidal evaluation; assay type: in vivo, (L.) Beau; conditions: postemergence
In short: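 Ratings use a 0-9 visual scale covering stand, vigor, malformation, size, chlorosis and appearance versus a control, scored 4-5 weeks post-spray. Roughly two-week-old seedlings received about 0.0040-1.000 kg/ha active, applied in 50/50 acetone/water with 0.5% TWEEN 20. Multiple tests per compound were averaged.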

[4] = test system: SAGPY (Sagittaria pygmaea); experiment: Flooded paddy, preemergence weed control; assay type: in vivo, L.; conditions: rated 3-4 weeks after treatment, 0-9 rating scale
In short: as §2

[5] = test system: CYPIR (Cyperus iria); experiment: Flooded paddy, preemergence weed control; assay type: in vivo; conditions: rated 3-4 weeks after treatment, 0-9 rating scale
In short: as §2

[6] = test system: ZEAMX (Corn, Field); experiment: Postemergence herbicidal evaluation; assay type: in vivo, Zea mays, L.; conditions: postemergence
In short: as §1

[7] = test system: GALAP (Galium aparine); experiment: Postemergence herbicidal evaluation; assay type: in vivo; conditions: postemergence
In short: as §1

[8] = test system: SETVI (Setaria viridis); experiment: Preemergence herbicidal evaluation; assay type: in vivo, (L.) Beau; conditions: preemergence, rated 4-5 weeks after treatment
In short: (§3)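 Visual 0-9 rating versus untreated control, taken four to five weeks post-treatment, scoring stand, vigor, malformation, size, chlorosis and overall appearance. Compound applied as aqueous acetone spray to freshly seeded soil cups, then kept under standard greenhouse care.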

[9] = test system: ECHCG (Echinochloa crus-galli); experiment: Preemergence herbicidal evaluation; assay type: in vivo, (L.) Beau; conditions: preemergence, rated 4-5 weeks after treatment
In short: as §3

[10] = test system: ABUTH (Abutilon theophrasti); experiment: Postemergence herbicidal evaluation; assay type: in vivo, Medic.; conditions: postemergence
In short: as §1

[11] = test system: IPOHE (Ipomoea hederacea); experiment: Preemergence herbicidal evaluation; assay type: in vivo, (L.) Jacq.; conditions: preemergence, rated 4-5 weeks after treatment
[12] = test system: AMBEL (Ambrosia artemisifolia); experiment: Preemergence herbicidal evaluation; assay type: in vivo, L.; conditions: preemergence, rated 4-5 weeks after treatment
In short: as §3

[13] = test system: CHEAL (Chenopodium album); experiment: Preemergence herbicidal evaluation; assay type: in vivo, L.; conditions: preemergence, rated 4-5 weeks after treatment
In short: as §3

[14] = test system: CASOB (Cassia obtusifolia); experiment: Preemergence herbicidal evaluation; assay type: in vivo, L.; conditions: preemergence, rated 4-5 weeks after treatment
In short: as §3

[15] = test system: ECHCG (Echinochloa crus-galli); experiment: Postemergence herbicidal evaluation; assay type: in vivo, (L.) Beau; conditions: postemergence
In short: as §1

[16] = test system: ORYSAT (Rice, Tebonnet); experiment: Postemergence herbicidal evaluation; assay type: in vivo, Oryza sativa, (L.) Tebonnet; conditions: postemergence
In short: as §1

[17] = test system: MOOVA (Monochoria vaginalis); experiment: Flooded paddy, preemergence weed control; assay type: in vivo, Presl.; conditions: rated 3-4 weeks after treatment, 0-9 rating scale
In short: as §2

[18] = test system: ORYSAT (Rice, Tebonnet); experiment: Preemergence herbicidal evaluation; assay type: in vivo, Oryza sativa, (L.) Tebonnet; conditions: preemergence, rated 4-5 weeks after treatment
[19] = test system: ORYSAT (Rice, Tebonnet); experiment: Flooded paddy, post-transplant rice tolerance; assay type: in vivo, Oryza sativa, (L.) Tebonnet; conditions: flooded paddy, post-transplant rice, rated 3-4 weeks after treatment, 0-9 rating scale
In short: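 Visual 0–9 injury rating against a control, covering stand, vigor, malformation, size, chlorosis and overall appearance. Treatment was post-transplant onto flooded containers (water 1.5–3 cm deep, silt loam) holding two ten-day-old cv. Tebonnet seedlings, maintained on greenhouse benches.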

[20] = test system: GLXMAW (Soybean, Williams); experiment: Postemergence herbicidal evaluation; assay type: in vivo, Glycine max, (L.) Merr. cv Williams; conditions: postemergence
In short: as §1

Cn1c(C(F)(F)F)cc(=O)n(-c2ccc3snc(C4OCC(CS(C)(=O)=O)O4)c3c2)c1=O (single isomer, unassigned) [Compound 87, 1-methyl-3-[3-[4-[(methylsulfonyl)methyl]-1,3-dioxolan-2-yl]-1,2-benzisothiazol-5-yl]-6-(trifluoromethyl)uracil]
3.5: ZEAMX herbicidal rating ([6]; rate 0.0320 kg/ha) | ZEAMX herbicidal rating ([6]; rate 0.0620 kg/ha) | ORYSAT herbicidal rating ([16]; rate 0.0620 kg/ha)
7.0: Preemergence herbicidal rating CASOB ([14]; rate 0.2500 kg/ha)
9.0: IPOHE herbicidal rating ([1]; rate 0.0320 kg/ha) | IPOHE herbicidal rating ([1]; rate 0.0620 kg/ha) | SETVI herbicidal rating ([3]; rate 0.0620 kg/ha) | GALAP herbicidal rating ([7]; rate 0.0320 kg/ha) | GALAP herbicidal rating ([7]; rate 0.0620 kg/ha) | Preemergence herbicidal rating SETVI ([8]; rate 0.2500 kg/ha) | Preemergence herbicidal rating ECHCG ([9]; rate 0.2500 kg/ha) | ABUTH herbicidal rating ([10]; rate 0.0320 kg/ha) | ABUTH herbicidal rating ([10]; rate 0.0620 kg/ha) | Preemergence herbicidal rating IPOHE ([11]; rate 0.2500 kg/ha) | Preemergence herbicidal rating AMBEL ([12]; rate 0.0620 kg/ha) | Preemergence herbicidal rating AMBEL ([12]; rate 0.1250 kg/ha) | Preemergence herbicidal rating AMBEL ([12]; rate 0.2500 kg/ha) | Preemergence herbicidal rating CHEAL ([13]; rate 0.0620 kg/ha) | Preemergence herbicidal rating CHEAL ([13]; rate 0.1250 kg/ha) | Preemergence herbicidal rating CHEAL ([13]; rate 0.2500 kg/ha) | Preemergence herbicidal rating CASOB ([14]; rate 0.1250 kg/ha) | GLXMAW herbicidal rating ([20]; rate 0.0320 kg/ha)
8.0: Preemergence herbicidal rating SETVI ([8]; rate 0.1250 kg/ha) | MOOVA herbicidal rating ([17]; rate 0.1250 kg/ha)
3.0: ECHCG herbicidal rating ([15]; rate 0.0320 kg/ha) | ORYSAT herbicidal rating ([16]; rate 0.0320 kg/ha) | Preemergence herbicidal rating ORYSAT ([18]; rate 0.1250 kg/ha) | ORYSAT herbicidal rating (transplanted rice tolerance) ([19]; rate 0.1250 kg/ha)
0.0: ECHORC herbicidal rating ([2]; rate 0.0320 kg/ha) | ECHORC herbicidal rating ([2]; rate 0.1250 kg/ha) | SAGPY herbicidal rating ([4]; rate 0.0320 kg/ha) | SAGPY herbicidal rating ([4]; rate 0.1250 kg/ha) | CYPIR herbicidal rating ([5]; rate 0.0320 kg/ha) | MOOVA herbicidal rating ([17]; rate 0.0320 kg/ha) | ORYSAT herbicidal rating (transplanted rice tolerance) ([19]; rate 0.0320 kg/ha)
4.0: ECHCG herbicidal rating ([15]; rate 0.0620 kg/ha)
2.0: Preemergence herbicidal rating ORYSAT ([18]; rate 0.0620 kg/ha)
6.0: SETVI herbicidal rating ([3]; rate 0.0320 kg/ha) | Preemergence herbicidal rating SETVI ([8]; rate 0.0620 kg/ha) | Preemergence herbicidal rating IPOHE ([11]; rate 0.1250 kg/ha) | Preemergence herbicidal rating CASOB ([14]; rate 0.0620 kg/ha)
5.0: CYPIR herbicidal rating ([5]; rate 0.1250 kg/ha) | Preemergence herbicidal rating IPOHE ([11]; rate 0.0620 kg/ha) | Preemergence herbicidal rating ORYSAT ([18]; rate 0.2500 kg/ha)
6.5: Preemergence herbicidal rating ECHCG ([9]; rate 0.1250 kg/ha)
5.5: Preemergence herbicidal rating ECHCG ([9]; rate 0.0620 kg/ha)
8.5: GLXMAW herbicidal rating ([20]; rate 0.0620 kg/ha)
